Molecular target: E. coli Alkaline Phosphatase (AP) (Escherichia coli, UniProt P00634)
Assay type: biochemical
Conditions: pH 8

E. coli Alkaline Phosphatase (AP), sequence (P00634 22-471): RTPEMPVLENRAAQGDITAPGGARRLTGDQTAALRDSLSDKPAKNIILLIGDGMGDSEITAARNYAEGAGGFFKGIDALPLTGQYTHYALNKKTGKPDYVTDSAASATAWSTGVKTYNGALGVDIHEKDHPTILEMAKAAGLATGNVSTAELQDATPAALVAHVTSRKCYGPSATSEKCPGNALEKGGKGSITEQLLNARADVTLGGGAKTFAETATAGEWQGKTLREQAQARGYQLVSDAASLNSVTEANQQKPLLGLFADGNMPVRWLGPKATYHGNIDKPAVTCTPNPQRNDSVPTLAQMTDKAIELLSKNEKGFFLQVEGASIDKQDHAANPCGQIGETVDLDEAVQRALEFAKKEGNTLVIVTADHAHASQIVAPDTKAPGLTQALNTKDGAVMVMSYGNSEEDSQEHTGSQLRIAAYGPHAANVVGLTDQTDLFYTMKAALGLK

O=S(=O)(O)O [sulfate]
differential binding energy between Pi and sulfate binding: at least 8.5 kcal/mol
inhibition of AP by sulfate: No significant inhibition

From PMC3152580 (Journal of the American Chemical Society, 2011)
